Data taken from patent publication US9670227B2, “Thienopyrimidine derivatives, a process for their preparation and pharmaceutical compositions containing them” (LES LABORATOIRES SERVIER, priority 2013, dated 2017).

Key:
Mcl-1 protein = Mcl-1 protein (UniProtKB primary accession number: Q07820) (Homo sapiens, UniProt Q07820); experiment: Inhibition of Mcl-1 by fluorescence polarisation, Method 1; assay type: binding; conditions: fluorescence polarisation test; Method 2 values are underlined in the patent (underlining not visible here); read-out: IC50 (M) Mcl-1 FP
Sequence of Mcl-1 protein (Q07820 whole entry): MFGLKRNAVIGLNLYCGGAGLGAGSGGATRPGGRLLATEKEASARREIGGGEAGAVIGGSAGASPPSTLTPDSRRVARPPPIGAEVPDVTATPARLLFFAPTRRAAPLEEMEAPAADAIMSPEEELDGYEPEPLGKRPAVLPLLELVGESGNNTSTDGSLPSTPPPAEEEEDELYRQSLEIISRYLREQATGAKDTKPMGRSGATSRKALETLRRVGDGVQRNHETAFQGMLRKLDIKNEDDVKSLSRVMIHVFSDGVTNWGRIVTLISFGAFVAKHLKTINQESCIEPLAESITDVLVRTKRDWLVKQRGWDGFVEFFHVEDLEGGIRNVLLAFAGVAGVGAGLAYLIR
Outline: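 Binding was measured as fluorescence polarisation of a fluorescein-labelled ligand (1 nM) displaced from Mcl-1 (5 nM), both final. Compounds ran as 11-point series with final DMSO at 5%.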

[1] = system: H929 multiple myeloma tumour line; experiment: In vitro cytotoxicity, Microculture Tetrazolium Assay; assay type: cell-based; conditions: Homo sapiens, NCI-H929, 48 h, H929 cells, 48 hours exposure, MTT; read-out: IC50 (μM) MTT H929
Procedure: The cytotoxicity studies were carried out on the H929 multiple myeloma tumour line.
The cells are distributed onto microplates and exposed to the test compounds for 48 hours.

Structure (SMILES) | IC50 (Mcl-1 protein) | IC50 [1]
Cc1c(-c2c(-c3ccc(F)cc3)sc3ncnc(OC(Cc4ccccc4OCc4ccnc(-c5ccc(C(F)(F)F)nc5)n4)C(=O)O)c23)ccc(OCCN2CCN(C)CC2)c1Cl [Example 109, (2R)-2-{[(5Sa)-5-{3-chloro-2-methyl-4-[2-(4-methylpiperazin-1-yl)ethoxy]phenyl}-6-(4-fluorophenyl)thieno[2,3-d]pyrimidin-4-yl]oxy}-3-[2-({2-[6-(trifluoromethyl)pyridin-3-yl]pyrimidin-4-yl}methoxy)phenyl]propanoic acid] | 8.4e-09 M | 0.108 µM
Cc1c(-c2c(-c3ccc(F)cc3)sc3ncnc(OC(Cc4ccccc4OCc4ccnc(-c5ccc(Cl)nc5)n4)C(=O)O)c23)ccc(OCCN2CCN(C)CC2)c1Cl [Example 110, (2R)-2-{[(5Sa)-5-{3-chloro-2-methyl-4-[2-(4-methylpiperazin-1-yl)ethoxy]phenyl}-6-(4-fluorophenyl)thieno[2,3-d]pyrimidin-4-yl]oxy}-3-(2-{[2-(6-chloropyridin-3-yl)pyrimidin-4-yl]methoxy}phenyl)propanoic acid] | 4.3e-09 M | 0.022 µM
COc1ccc(-c2nccc(COc3ccccc3CC(Oc3ncnc4sc(-c5ccc(F)cc5)c(-c5ccc(OCCN6CCN(C)CC6)c(Cl)c5C)c34)C(=O)O)n2)cn1 [Example 111, (2R)-2-{[(5Sa)-5-{3-chloro-2-methyl-4-[2-(4-methylpiperazin-1-yl)ethoxy]phenyl}-6-(4-fluorophenyl)thieno[2,3-d]pyrimidin-4-yl]oxy}-3-(2-{[2-(6-methoxypyridin-3-yl)pyrimidin-4-yl]methoxy}phenyl)propanoic acid] | 3.3e-09 M | 0.008 µM
COc1cccc(-c2nccc(COc3ccccc3CC(Oc3ncnc4sc(-c5ccc(F)cc5)c(-c5ccc(OCCN6CCN(C)CC6)c(Cl)c5C)c34)C(=O)O)n2)c1 [Example 112, (2R)-2-{[(5Sa)-5-{3-chloro-2-methyl-4-[2-(4-methylpiperazin-1-yl)ethoxy]phenyl}-6-(4-fluorophenyl)thieno[2,3-d]pyrimidin-4-yl]oxy}-3-(2-{[2-(3-methoxyphenyl)pyrimidin-4-yl]methoxy}phenyl)propanoic acid] | 5.6e-09 M | 0.011 µM
Cc1ncccc1-c1nccc(COc2ccccc2CC(Oc2ncnc3sc(-c4ccc(F)cc4)c(-c4ccc(OCCN5CCN(C)CC5)c(Cl)c4C)c23)C(=O)O)n1 [Example 116, (2R)-2-{[(5Sa)-5-{3-chloro-2-methyl-4-[2-(4-methylpiperazin-1-yl)ethoxy]phenyl}-6-(4-fluorophenyl)thieno[2,3-d]pyrimidin-4-yl]oxy}-3-(2-{[2-(2-methylpyridin-3-yl)pyrimidin-4-yl]methoxy}phenyl)propanoic acid] | 2.9e-09 M | 0.007 µM
Cc1c(-c2c(-c3ccc(F)cc3)sc3ncnc(OC(Cc4ccccc4OCc4ccnc(-c5ccnc(Cl)c5)n4)C(=O)O)c23)ccc(OCCN2CCN(C)CC2)c1Cl [Example 119, (2R)-2-{[(5Sa)-5-{3-chloro-2-methyl-4-[2-(4-methylpiperazin-1-yl)ethoxy]phenyl}-6-(4-fluorophenyl)thieno[2,3-d]pyrimidin-4-yl]oxy}-3-(2-{[2-(2-chloropyridin-4-yl)pyrimidin-4-yl]methoxy}phenyl)propanoic acid] | 4.8e-09 M | 0.02 µM
Cc1sccc1-c1nccc(COc2ccccc2CC(Oc2ncnc3sc(-c4ccc(F)cc4)c(-c4ccc(OCCN5CCN(C)CC5)c(Cl)c4C)c23)C(=O)O)n1 [Example 121, (2R)-2-{[(5Sa)-5-{3-chloro-2-methyl-4-[2-(4-methylpiperazin-1-yl)ethoxy]phenyl}-6-(4-fluorophenyl)thieno[2,3-d]pyrimidin-4-yl]oxy}-3-(2-{[2-(2-methylthiophen-3-yl)pyrimidin-4-yl]methoxy}phenyl)propanoic acid] | 5.6e-09 M | 0.015 µM
Cc1cncc(-c2nccc(COc3ccccc3CC(Oc3ncnc4sc(-c5ccc(F)cc5)c(-c5ccc(OCCN6CCN(C)CC6)c(Cl)c5C)c34)C(=O)O)n2)c1 [Example 122, (2R)-2-{[(5Sa)-5-{3-chloro-2-methyl-4-[2-(4-methylpiperazin-1-yl)ethoxy]phenyl}-6-(4-fluorophenyl)thieno[2,3-d]pyrimidin-4-yl]oxy}-3-(2-{[2-(5-methylpyridin-3-yl)pyrimidin-4-yl]methoxy}phenyl)propanoic acid] | 3.8e-09 M | 0.01 µM

Now from value to compound, other results behind:

IC50 (Mcl-1 protein) | Structure (SMILES) | IC50 [1]
4.3e-09 M | Cc1cscc1-c1nccc(COc2ccccc2CC(Oc2ncnc3sc(-c4ccc(F)cc4)c(-c4ccc(OCCN5CCN(C)CC5)c(Cl)c4C)c23)C(=O)O)n1 [Example 124, (2R)-2-{[(5Sa)-5-{3-chloro-2-methyl-4-[2-(4-methylpiperazin-1-yl)ethoxy]phenyl}-6-(4-fluorophenyl)thieno[2,3-d]pyrimidin-4-yl]oxy}-3-(2-{[2-(4-methylthiophen-3-yl)pyrimidin-4-yl]methoxy}phenyl)propanoic acid] | 0.024 µM
7.3e-09 M | Cc1c(-c2c(-c3ccc(F)cc3)sc3ncnc(OC(Cc4ccccc4OCc4ccn[nH]4)C(=O)O)c23)ccc(OCCN2CCN(C)CC2)c1Cl [Example 125, (2R)-2-{[(5Sa)-5-{3-chloro-2-methyl-4-[2-(4-methylpiperazin-1-yl)ethoxy]phenyl}-6-(4-fluorophenyl)thieno[2,3-d]pyrimidin-4-yl]oxy}-3-[2-(1H-pyrazol-5-ylmethoxy)phenyl]propanoic acid] | 0.354 µM
1.4e-08 M | Cc1c(-c2c(-c3ccc(F)cc3)sc3ncnc(OC(Cc4ccccc4OCC4CCCO4)C(=O)O)c23)ccc(OCCN(C)C)c1Cl [Example 126, (2R)-2-{[(5Sa)-5-{3-chloro-4-[2-(dimethylamino)ethoxy]-2-methylphenyl}-6-(4-fluorophenyl)thieno[2,3-d]pyrimidin-4-yl]oxy}-3-{2-[(2R)-tetrahydrofuran-2-ylmethoxy]phenyl}propanoic acid] | 0.7 µM
2e-08 M | Cc1c(-c2c(-c3ccc(F)cc3)sc3ncnc(OC(Cc4ccccc4OCC(F)(F)F)C(=O)O)c23)ccc(OCCN(C)C)c1Cl [Example 127, (2R)-2-{[(5Sa)-5-{3-chloro-4-[2-(dimethylamino)ethoxy]-2-methylphenyl}-6-(4-fluorophenyl)thieno[2,3-d]pyrimidin-4-yl]oxy}-3-[2-(2,2,2-trifluoroethoxy)phenyl]propanoic acid] | 0.558 µM
4e-09 M | Cc1c(-c2c(-c3ccc(F)cc3)sc3ncnc(OC(Cc4ccccc4OCc4ccnc(-c5ccncc5)n4)C(=O)O)c23)ccc(OCCN(C)C)c1Cl [Example 128, (2R)-2-{[(5Sa)-5-{3-chloro-4-[2-(dimethylamino)ethoxy]-2-methylphenyl}-6-(4-fluorophenyl)thieno[2,3-d]pyrimidin-4-yl]oxy}-3-(2-{[2-(pyridin-4-yl)pyrimidin-4-yl]methoxy}phenyl)propanoic acid] | 0.018 µM
2.2e-09 M | Cc1c(-c2c(-c3ccc(F)cc3)sc3ncnc(OC(Cc4ccccc4OCc4ccnc(N5CCOCC5)n4)C(=O)O)c23)ccc(OCCN(C)C)c1Cl [Example 129, (2R)-2-{[(5Sa)-5-{3-chloro-4-[2-(dimethylamino)ethoxy]-2-methylphenyl}-6-(4-fluorophenyl)thieno[2,3-d]pyrimidin-4-yl]oxy}-3-(2-{[2-(morpholin-4-yl)pyrimidin-4-yl]methoxy}phenyl)propanoic acid] | 0.069 µM
